Species: Rattus norvegicus
Test: DrugMatrix - Regimen: Daily Repeat
Type: toxicity, organism-based, Sprague-Dawley
Set-up: regimen Daily Repeat, gender Male, age 6-8 weeks
Details: in vivo, po, route oral GAVAGE, […]; for ABSOLUTE BASOPHIL / ABSOLUTE EOSINOPHIL / ABSOLUTE LYMPHOCYTE / ABSOLUTE MONOCYTE / ABSOLUTE SEGMENTED NEUTROPHIL / BASOPHIL / EOSINOPHIL / ERYTHROCYTE COUNT / HEMATOCRIT / HEMOGLOBIN / LEUKOCYTE COUNT / LYMPHOCYTE / MEAN CORPUSCULAR HEMOGLOBIN / MEAN CORPUSCULAR HEMOGLOBIN CONCENTRATION / MEAN CORPUSCULAR VOLUME / MONOCYTE / NEUTROPHIL / NUCLEATED RED BLOOD CELLS / PLATELET COUNT: tissue Blood; for ALANINE AMINOTRANSFERASE / ALBUMIN / ALKALINE PHOSPHATASE / ASPARTATE AMINOTRANSFERASE / BLOOD UREA NITROGEN / CARBON DIOXIDE / CHLORIDE / CHOLESTEROL / CREATINE PHOSPHOKINASE / CREATININE / GLUCOSE / LACTATE DEHYDROGENASE / LIPASE / PHOSPHORUS / POTASSIUM / SODIUM / TOTAL BILIRUBIN / TOTAL PROTEIN / URIC ACID: tissue Plasma
[1] = 0 mg/kg, 72 h, dose level Control, time 3 day
[2] = 0 mg/kg, 120 h, dose level Control, time 5 day
[3] = 30 mg/kg, 72 h, dose level Low, time 3 day

## CCC(C)n1ncn(-c2ccc(N3CCN(c4ccc(OCC5COC(Cn6cncn6)(c6ccc(Cl)cc6Cl)O5)cc4)CC3)cc2)c1=O (centres undefined) [ITRACONAZOLE]
[1]
  ABSOLUTE BASOPHIL: 0 CELLS/uL
  ABSOLUTE EOSINOPHIL: 104.17 CELLS/uL
  ABSOLUTE LYMPHOCYTE: 14547 CELLS/uL
  ABSOLUTE MONOCYTE: 292 CELLS/uL
  ABSOLUTE SEGMENTED NEUTROPHIL: 1640.17 CELLS/uL
  BASOPHIL: 0%
  EOSINOPHIL: 0.67%
  ERYTHROCYTE COUNT: 5.35 x10E6/uL
  HEMATOCRIT: 33.67%
  HEMOGLOBIN: 13.38 G/DL
  LEUKOCYTE COUNT: 16.58 x10E3/uL
  LYMPHOCYTE: 87.5%
  MEAN CORPUSCULAR HEMOGLOBIN: 25.05 pg
  MEAN CORPUSCULAR HEMOGLOBIN CONCENTRATION: 39.78 G/DL
  MEAN CORPUSCULAR VOLUME: 62.97 fL
  MONOCYTE: 1.83%
  NEUTROPHIL: 10%
  NUCLEATED RED BLOOD CELLS: 0 /100WBC
  PLATELET COUNT: 1274.5 x10E3/uL
  ALANINE AMINOTRANSFERASE: 76.83 u/L
  ALBUMIN: 3.97 G/DL
  ALKALINE PHOSPHATASE: 347 u/L
  ASPARTATE AMINOTRANSFERASE: 97.17 u/L
  BLOOD UREA NITROGEN: 14.33 mg/dL
  CARBON DIOXIDE: 25.5 mmol/L
  CHLORIDE: 100.33 MEQ/L
  CHOLESTEROL: 68.67 mg/dL
  CREATINE PHOSPHOKINASE: 659.17 u/L
  CREATININE: 0.32 mg/dL
  GLUCOSE: 160.67 mg/dL
  LACTATE DEHYDROGENASE: 271.5 u/L
  LIPASE: 11.67 u/L
  PHOSPHORUS: 10.65 mg/dL
  POTASSIUM: 5.95 MEQ/L
  SODIUM: 139.65 MEQ/L
  TOTAL BILIRUBIN: 0.2 mg/dL
  TOTAL PROTEIN: 5.72 G/DL
  URIC ACID: 1.37 mg/dL
[2]
  ABSOLUTE BASOPHIL: 0 CELLS/uL
  ABSOLUTE EOSINOPHIL: 331.5 CELLS/uL
  ABSOLUTE LYMPHOCYTE: 15021.67 CELLS/uL
  ABSOLUTE MONOCYTE: 376.5 CELLS/uL
  ABSOLUTE SEGMENTED NEUTROPHIL: 3070.33 CELLS/uL
  BASOPHIL: 0%
  EOSINOPHIL: 1.83%
  ERYTHROCYTE COUNT: 5.24 x10E6/uL
  HEMATOCRIT: 33.22%
  HEMOGLOBIN: 13.2 G/DL
  LEUKOCYTE COUNT: 18.8 x10E3/uL
  LYMPHOCYTE: 79.67%
  MEAN CORPUSCULAR HEMOGLOBIN: 25.17 pg
  MEAN CORPUSCULAR HEMOGLOBIN CONCENTRATION: 39.73 G/DL
  MEAN CORPUSCULAR VOLUME: 63.38 fL
  MONOCYTE: 2%
  NEUTROPHIL: 16.5%
  NUCLEATED RED BLOOD CELLS: 0 /100WBC
  PLATELET COUNT: 1142.67 x10E3/uL
  ALANINE AMINOTRANSFERASE: 52.5 u/L
  ALBUMIN: 3.9 G/DL
  ALKALINE PHOSPHATASE: 284.5 u/L
  ASPARTATE AMINOTRANSFERASE: 81.33 u/L
  BLOOD UREA NITROGEN: 16 mg/dL
  CARBON DIOXIDE: 25.33 mmol/L
  CHLORIDE: 99.5 MEQ/L
  CHOLESTEROL: 74.83 mg/dL
  CREATINE PHOSPHOKINASE: 448.33 u/L
  CREATININE: 0.37 mg/dL
  GLUCOSE: 164.17 mg/dL
  LACTATE DEHYDROGENASE: 290.67 u/L
  LIPASE: 6.83 u/L
  PHOSPHORUS: 11.5 mg/dL
  POTASSIUM: 6.28 MEQ/L
  SODIUM: 139.5 MEQ/L
  TOTAL BILIRUBIN: 0.13 mg/dL
  TOTAL PROTEIN: 5.55 G/DL
  URIC ACID: 1.12 mg/dL
[3]
  ABSOLUTE BASOPHIL: 0 CELLS/uL
  ABSOLUTE EOSINOPHIL: 60 CELLS/uL
  ABSOLUTE LYMPHOCYTE: 9936.67 CELLS/uL
  ABSOLUTE MONOCYTE: 160.67 CELLS/uL
  ABSOLUTE SEGMENTED NEUTROPHIL: 876 CELLS/uL
  BASOPHIL: 0%
  EOSINOPHIL: 0.67%
  ERYTHROCYTE COUNT: 6.06 x10E6/uL
  HEMATOCRIT: 37.97%
  HEMOGLOBIN: 14.57 G/DL
  LEUKOCYTE COUNT: 11.03 x10E3/uL
  LYMPHOCYTE: 89.67%
  MEAN CORPUSCULAR HEMOGLOBIN: 24 pg
  MEAN CORPUSCULAR HEMOGLOBIN CONCENTRATION: 38.4 G/DL
  MEAN CORPUSCULAR VOLUME: 62.6 fL
  MONOCYTE: 1.33%
  NEUTROPHIL: 8.33%
  NUCLEATED RED BLOOD CELLS: 0 /100WBC
  PLATELET COUNT: 1209.33 x10E3/uL
  ALANINE AMINOTRANSFERASE: 56 u/L
  ALBUMIN: 4.23 G/DL
  ALKALINE PHOSPHATASE: 522.33 u/L
  ASPARTATE AMINOTRANSFERASE: 74.33 u/L
  BLOOD UREA NITROGEN: 11 mg/dL
  CARBON DIOXIDE: 22.67 mmol/L
  CHLORIDE: 100.33 MEQ/L
  CHOLESTEROL: 56 mg/dL
  CREATINE PHOSPHOKINASE: 240 u/L
  CREATININE: 0.11 mg/dL
  GLUCOSE: 184.33 mg/dL
  LACTATE DEHYDROGENASE: 106 u/L
  LIPASE: 10 u/L
  PHOSPHORUS: 12.87 mg/dL
  POTASSIUM: 6.49 MEQ/L
  SODIUM: 141.73 MEQ/L
  TOTAL BILIRUBIN: 0.17 mg/dL
  TOTAL PROTEIN: 6.4 G/DL
  URIC ACID: 1.97 mg/dL
